Laboratory results as given in ChEMBL document CHEMBL5034015, “Structure-Based Optimization of 3-Phenyl-N-(2-(3-phenylureido)ethyl)thiophene-2-sulfonamide Derivatives as Selective Mcl-1 Inhibitors” (J Med Chem, 2021).
The source made the active and inactive calls. How the calls were made is not given here.

Key:
HEK-293T = experiment: Cytotoxicity against HEK293T cells assessed as reduction in cell viability incubated for 48 hrs by CCK8 assay; details: Homo sapiens
Bcl-2-like protein 1 [1] = target: T1, Bcl-2-like protein 1 (Homo sapiens, UniProt Q07817); experiment: Binding affinity to full length human Bcl-xl expressed in Escherichia coli BL21 (DE3) at 100 uM preincubated for 30 mins followed by 5-FAM-QEDIIIINIARHLAQVGDSMD-RSIPPG tracer addition and measured after 20 mins by fluorescence polarization assay relative to control; details: time 50.0 min
RS4-11 = experiment: cells; details: Homo sapiens, RS4-11, 48 h
Description: Cytotoxicity against human RS4-11 cells assessed as inhibition of cell growth incubated for 48 hrs by CCK8 assay

[2] = target: T2, Apoptosis regulator Bcl-2 (Homo sapiens, UniProt P10415); experiment: Binding affinity to full length human Bcl-2 expressed in Escherichia coli BL21 (DE3) at 100 uM preincubated for 30 mins followed by 5-FAM-QEDIIIINIARHLAQVGDSMD-RSIPPG tracer addition and measured after 20 mins by fluorescence polarization assay relative to control; details: time 50.0 min
HeLa = experiment: cells; details: Homo sapiens, 48 h
Description: Cytotoxicity against human HeLa cells assessed as inhibition of cell growth incubated for 48 hrs by CCK8 assay

HL-60 = experiment: cells; details: Homo sapiens, HL-60, 48 h
Description: Cytotoxicity against human HL-60 cells assessed as inhibition of cell growth incubated for 48 hrs by CCK8 assay

[3] = target: T3, Induced myeloid leukemia cell differentiation protein Mcl-1 (Homo sapiens, UniProt Q07820); experiment: Binding affinity to full length human MCL1 expressed in Escherichia coli BL21 (DE3) at 100 uM preincubated for 30 mins followed by 5-FAM-QEDIIIINIARHLAQVGDSMD-RSIPPG tracer addition and measured after 20 mins by fluorescence polarization assay relative to control; details: time 50.0 min
[4] = target: T3, Induced myeloid leukemia cell differentiation protein Mcl-1; experiment: Binding affinity to full length human MCL1 expressed in Escherichia coli BL21 (DE3) assessed as inhibition constant preincubated for 30 mins followed by 5-FAM-QEDIIIINIARHLAQVGDSMD-RSIPPG tracer addition and measured after 20 mins by fluorescence polarization assay
Bcl-2-like protein 1 [5] = target: T1, Bcl-2-like protein 1; experiment: Binding affinity to full length human Bcl-xl expressed in Escherichia coli BL21 (DE3) at up to 100 uM preincubated for 30 mins followed by 5-FAM-QEDIIIINIARHLAQVGDSMD-RSIPPG tracer addition and measured after 20 mins by fluorescence polarization assay; details: dose microM <=100, time 50.0 min
[6] = target: T2, Apoptosis regulator Bcl-2; experiment: Binding affinity to full length human Bcl-2 expressed in Escherichia coli BL21 (DE3) at up to 100 uM preincubated for 30 mins followed by 5-FAM-QEDIIIINIARHLAQVGDSMD-RSIPPG tracer addition and measured after 20 mins by fluorescence polarization assay; details: dose microM <=100, time 50.0 min

T1 sequence (Q07817 whole entry): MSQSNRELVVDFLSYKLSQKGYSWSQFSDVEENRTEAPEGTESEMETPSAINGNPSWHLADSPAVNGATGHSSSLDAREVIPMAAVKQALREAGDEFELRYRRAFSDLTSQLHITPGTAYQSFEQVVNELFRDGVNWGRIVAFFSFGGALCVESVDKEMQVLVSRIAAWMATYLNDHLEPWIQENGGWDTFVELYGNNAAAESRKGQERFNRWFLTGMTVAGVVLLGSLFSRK
T2 sequence (P10415 whole entry): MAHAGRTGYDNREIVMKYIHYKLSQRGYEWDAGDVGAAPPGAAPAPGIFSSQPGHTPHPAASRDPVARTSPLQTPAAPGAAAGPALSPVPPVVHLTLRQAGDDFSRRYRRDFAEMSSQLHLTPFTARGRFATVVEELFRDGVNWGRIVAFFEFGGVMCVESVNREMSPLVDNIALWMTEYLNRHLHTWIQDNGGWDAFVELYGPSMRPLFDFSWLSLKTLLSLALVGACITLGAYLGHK
T3 sequence (Q07820 whole entry): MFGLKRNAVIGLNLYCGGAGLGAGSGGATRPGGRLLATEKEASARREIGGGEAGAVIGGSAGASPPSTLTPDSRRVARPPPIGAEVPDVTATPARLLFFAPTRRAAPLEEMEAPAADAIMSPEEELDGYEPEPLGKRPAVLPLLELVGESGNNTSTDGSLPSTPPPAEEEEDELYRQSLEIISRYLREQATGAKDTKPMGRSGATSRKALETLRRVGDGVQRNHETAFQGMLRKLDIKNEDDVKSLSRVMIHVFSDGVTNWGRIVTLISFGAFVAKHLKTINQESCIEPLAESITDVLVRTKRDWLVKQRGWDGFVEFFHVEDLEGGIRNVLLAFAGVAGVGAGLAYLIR

| inhibition (Bcl-2-like protein 1 [1]) [%] | IC50 (RS4-11) [µM] | inhibition [2] [%] | IC50 (HeLa) [µM] | IC50 (HL-60) [µM] | inhibition [3] [%] | Ki [4] [µM] | Activity (Bcl-2-like protein 1 [5]) | Activity [6] | SMILES | IC50 (HEK-293T) [µM] |
| --- | --- | --- | --- | --- | --- | --- | --- | --- | --- | --- |
| 12 | 7.3 | 20 | > 20 | 2.2 | 72 | – | – | – | O=S(=O)(c1sccc1-c1ccccc1Oc1ccc(O)c(O)c1)N1CCN(C(=S)Nc2cc(C(F)(F)F)cc(C(F)(F)F)c2)CC1 | > 20 |
| 18 | > 50 | 16 | > 50 | > 50 | 33 | – | – | – | COc1ccc(Oc2ccccc2-c2ccsc2S(=O)(=O)N2CCN(C(=S)Nc3ccc([N+](=O)[O-])cc3)CC2)cc1OC | > 20 |
| 29 | 14.3 | 33 | > 20 | 4.9 | 63 | – | – | – | O=C(Nc1ccc([N+](=O)[O-])cc1)N1CCN(S(=O)(=O)c2sccc2-c2ccccc2Oc2ccc(O)c(O)c2)CC1 | > 20 |
| 32 | 6.8 | 33 | 14.8 | 8.1 | 95 | – | – | – | O=C(Nc1ccc(F)cc1)N1CCN(S(=O)(=O)c2sccc2-c2ccccc2Oc2ccc(O)c(O)c2)CC1 | 15.5 |
| – | 4.8 | – | 8 | 3.2 | – | 0.73 | inactive | inactive | Cc1ccc(-c2ccsc2S(=O)(=O)NCCNC(=S)Nc2cc(C(F)(F)F)cc(C(F)(F)F)c2)c(Oc2ccc(O)c(O)c2)c1 | 8 |
| 34 | 9.8 | 30 | > 20 | 4.5 | 74 | – | – | – | O=C(Nc1cccc([N+](=O)[O-])c1)N1CCN(S(=O)(=O)c2sccc2-c2ccccc2Oc2ccc(O)c(O)c2)CC1 | > 20 |

Further lines, the compound ahead of its results:

| SMILES | inhibition (Bcl-2-like protein 1 [1]) [%] | IC50 (RS4-11) [µM] | inhibition [2] [%] | IC50 (HeLa) [µM] | IC50 (HL-60) [µM] | inhibition [3] [%] | Ki [4] [µM] | Activity (Bcl-2-like protein 1 [5]) | Activity [6] | IC50 (HEK-293T) [µM] |
| --- | --- | --- | --- | --- | --- | --- | --- | --- | --- | --- |
| COc1ccc(Oc2ccc(C(C)C)cc2-c2ccsc2S(=O)(=O)NCCNC(=S)Nc2cc(C(F)(F)F)cc(C(F)(F)F)c2)cc1OC | – | 5.5 | – | 8.3 | 6.9 | – | 12 | inactive | inactive | 10.2 |
| Cc1ccc(-c2ccsc2S(=O)(=O)NCCNC(=S)Nc2ccc([N+](=O)[O-])cc2)c(Oc2ccc(O)c(O)c2)c1 | – | 5.1 | – | 6.8 | 2.9 | – | 1.5 | inactive | inactive | 8.2 |
| O=S(=O)(NCCNC(=S)Nc1ccc(Cl)cc1)c1ccc(-c2ccccc2OCc2ccccc2)s1 | – | > 50 | – | 7 | > 50 | – | 4.3 | inactive | inactive | 12.1 |
| Cc1cc(C)cc(NC(=O)NCCNS(=O)(=O)c2ccc(-c3ccccc3Oc3ccc(N)cc3)s2)c1 | – | > 20 | – | > 20 | > 50 | – | 1.6 | inactive | inactive | > 20 |
| COc1ccc(Oc2ccc([N+](=O)[O-])cc2-c2ccsc2S(=O)(=O)N2CCN(C(=O)Nc3ccc([N+](=O)[O-])cc3)CC2)cc1OC | 44 | > 50 | 19 | > 50 | > 50 | 37 | – | – | – | > 20 |
| COc1ccc(Oc2ccccc2-c2ccsc2S(=O)(=O)N2CCN(C(=O)Nc3cccc([N+](=O)[O-])c3)CC2)cc1OC | 19 | > 50 | 18 | > 50 | > 50 | 31 | – | – | – | > 20 |
| COc1ccc(NC(=O)NCCNS(=O)(=O)c2ccc(-c3ccccc3Oc3ccc([N+](=O)[O-])cc3)s2)cc1 | – | > 50 | – | > 20 | > 50 | – | 4.6 | inactive | inactive | > 20 |
| COc1cccc(NC(=S)NCCNS(=O)(=O)c2ccc(-c3ccccc3Oc3ccc([N+](=O)[O-])cc3)s2)c1 | – | > 50 | – | > 50 | > 50 | – | 13 | inactive | inactive | > 20 |
